Common to all, as to assay: relative viability (nuclei count vs DMSO), 5 days (fraction); higher = more cells survive
Compound in the test “Tanzisertib + Vorinostat”: O[C@H]1CC[C@H](Nc2ncc3nc(Nc4c(F)cc(F)cc4F)n([C@H]4CCOC4)c3n2)CC1 [Tanzisertib] + O=C(CCCCCCC(=O)Nc1ccccc1)NO [Vorinostat] (partner 1 µM)
The procedure, abridged:
(§1)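 Five library-drug doses in √10 steps were combined with a fixed anchor-drug dose, or a single drug was given alone, by pin tool to lung cancer cell lines in 1536-well plates the day after seeding. Nuclei were stained and counted after 5 days. Relative viability is the nuclei count in treated wells over that in vehicle wells, taken as the median of duplicate plates.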

Compound in test [1]: C[C@@H](N)c1ccc(C(=O)Nc2ccnc3[nH]ccc23)cc1 + Cc1cc(Nc2cc(N3CCN(C)CC3)nc(Sc3ccc(NC(=O)C4CC4)cc3)n2)n[nH]1 [Tozasertib] (partner 0.1 µM)
Put shortly:
as §1

Compound in test [2]: C[C@@H](N)c1ccc(C(=O)Nc2ccnc3[nH]ccc23)cc1 + C[C@]1(O)C[C@@H](c2nc(-c3ccc4ccc(-c5ccccc5)nc4c3)c3c(N)nccn32)C1 [Linsitinib] (partner 1 µM)
Put shortly:
as §1

Compound in test [3]: C[C@@H](N)c1ccc(C(=O)Nc2ccnc3[nH]ccc23)cc1 + N=C(N)NC(=N)NCCc1ccccc1 [Phenformin] (partner 250 µM)
The procedure, abridged: as §1

With UMC-11, the relative viability stood at 0.41 in the test with Tanzisertib + Vorinostat (first compound 0.08 µM); 0.401 with Tanzisertib + Vorinostat (first compound 0.253 µM); 0.438 with Tanzisertib + Vorinostat (first compound 0.8 µM); 0.404 with Tanzisertib + Vorinostat (first compound 2.53 µM); 0.388 with Tanzisertib + Vorinostat (first compound 8 µM); 0.215 in test [1] (first compound 0.04 µM). For the same cell line, the relative viability in test [1] (first compound 0.1265 µM) came to 0.18; in test [1] (first compound 0.4 µM), 0.205; in test [1] (first compound 4 µM), 0.198; in test [2] (first compound 0.04 µM), 1.02; in test [2] (first compound 0.1265 µM) it was 1.09; in test [2] (first compound 0.4 µM), 1.06. For the same cell line, the relative viability in test [2] (first compound 1.265 µM) amounted to 0.958; in test [2] (first compound 4 µM), 0.641; in test [3] (first compound 0.04 µM), 0.268; in test [3] (first compound 0.1265 µM), 0.358; in test [3] (first compound 0.4 µM) it was 0.354; in test [3] (first compound 1.265 µM) it was 0.228. In addition, the relative viability in test [3] (first compound 4 µM) came out at 0.234.

Values taken from the supplement of paper PMC10307832.
